Source: US20090311185A1, “Peptide having antianxiety activity and screening method therefor” (priority 2005, published 2009)
“Also recorded” adds a separate entry of the source. Bridges are numbered along the chain shown (N, C = ends). Roman numbers before positions name the chains, in order. Where no end group is shown, it is not given here.

Experiments:
[1] = tested on: rats; assay: Defensive burying test after intracerebroventricular administration; type: in vivo, rat; conditions: F344 male rats, 15 min test, vs vehicle
Protocol: The influence of relaxin-3 on an anxiety activity was determined using a defensive burying test (Treit et al., Pharmacology Biochemistry and Behavior, 15, p. 619-626, 1981).
F344 male rats (7 weeks of age; Japan Charles River) were fed foods for experimental animals (MF; Oriental Yeast) to be adapted. The rats (150 to 200 g) received cannulation into the lateral cerebroventricle under anesthesia. Administration experiments of relaxin-3 were carried out a week or later.
The tested rats were placed and left in a testing chamber, which floor was covered with a bedding material to a height of 5 cm, for 30 minutes or more once a day from 3 days before the defensive burying test, so as to allow the tested rats to habituate to the testing environment. The rats were habituated to the environment without the stimulating electrode until the test. […]
On test day, the tested rats were placed in a test chamber (with bedding material to a height of 5 cm) with a stimulating electrode, so as to start an experiment. […] All behaviors of the tested rats were recorded using a videocamera, and the burying behavior time (burying time (sec.)) within 15 minutes from the first electrical shock was measured using the recorded tape. […]

[2] = tested on: mice; assay: Elevated plus-maze test after intracerebroventricular administration (mice); type: in vivo; conditions: BALB/c male mice, 1 nmol/mouse intracerebroventricular, 5 min test, vs vehicle
Protocol: The influence of relaxin-3 on anxiety activity was determined using an elevated plus-maze. An elevated plus-maze test is a behavioral pharmacological test which is widely used in the measurement of anxiety level of experimental animals such as rats or mice, or for the evaluation of drug efficacies of antianxiety drugs, using exploring behaviors in open arms, such as the time spent in open arms, as an index.
BALB/c male mice (7 weeks of age; Japan Charles River) were received cannulation into the lateral cerebroventricle under anesthesia. The mice were then fed, and administration experiments of relaxin-3 were carried out a week or later.
The human relaxin-3 (Peptide Institute, Inc.) was dissolved in physiological saline and was diluted to a final concentration of 1 nmol/mouse.
The tested mice with guide cannula implantation were intracerebroventricularly administered with each 2 μL of the human relaxin-3 administration solution (N=8) or a vehicle solution (physiological saline) (N=9) at a rate of 1 μL per minute using an infusion pump.
Antianxiety activities were measured using an elevated plus-maze. […] The behaviors of mice were recorded by a video, and the number of entries into the open and closed arms and the time spent in the open and closed arms were measured on each mouse by analyzing the video after the completion of the test. […]

[3] = tested on: rats; assay: Elevated plus-maze test after intracerebroventricular administration (rats); type: in vivo, rat; conditions: Wistar male rats, 5 min test, vs vehicle
Protocol: The influence of relaxin-3 on anxiety activity was determined using an elevated plus-maze.
Wistar male rats (9 weeks of age; Japan Charles River) were received cannulation into the lateral cerebroventricle under anesthesia. The rats were then fed, and administration experiments of relaxin-3 were carried out a week or later.
The human relaxin-3 (Peptide Institute, Inc.) was dissolved in physiological saline and was diluted to a final concentration of 10 pmol/rat or 50 pmol/rat.
The tested rats with guide cannula implantation were administered with 5 μL each of the human relaxin-3 administration solution (10 pmol/rat, N=8; or 50 pmol/rat, N=7), or vehicle group (physiological saline, N=7) at a rate of 2.5 μL per minute using an infusion pump.
Antianxiety activities were measured using an elevated plus-maze. The maze was raised 50 cm above the floor and included four arms arranged in the form of a plus sign (+) spread from the central platform (10 cm×10 cm) positioned at the center. Two opposite arms (50 cm long and 10 cm wide) are open arms, and the other two opposite arms (50 cm long, 10 cm wide with walls 40 cm high) were closed arms. Lighting was arranged so as to set the luminance at the floor in the open arms was 60 to 80 lux. A rat 10 minutes after the intracerebroventricular administration was placed in the center of the plus-maze so as to face one of the open arms, and the test was carried out for 5 minutes. The test was conducted only within a period from 11:00 to 16:00. The behaviors of rats were recorded by a video, and the number of entries into the open and closed arms and the time spent in the open and closed arms were measured on each mouse by analyzing the video after the completion of the test. FIGS. 7 and 8 show the total number of entries into open and closed arms and the percentage of time spent in open arms within 5 minutes, respectively. To compare among the human relaxin-3 administration groups and the vehicle group, a significant difference test by the t-test was conducted.

[4] = biological target: T1, SALPR (Homo sapiens, UniProt Q9NSD7); assay: Suppression of forskolin-increased transcription activity (CRE-PLAP reporter) in SALPR-SE302 cells; type: cell-based; conditions: forskolin 1 μmol/L, 1 day incubation
T1 construct: the area encoding SALPR is known to be from position 1 to position 1407 (1410 base pairs, 469 amino acid residues); expressed in transfected cells; host or cells: SE302 cells (HEK293 clone carrying the CRE-PLAP reporter), transduced with retrovirus vector pBabeCL(SALPR)IH and selected with hygromycin
T1 sequence (Q9NSD7 1-469): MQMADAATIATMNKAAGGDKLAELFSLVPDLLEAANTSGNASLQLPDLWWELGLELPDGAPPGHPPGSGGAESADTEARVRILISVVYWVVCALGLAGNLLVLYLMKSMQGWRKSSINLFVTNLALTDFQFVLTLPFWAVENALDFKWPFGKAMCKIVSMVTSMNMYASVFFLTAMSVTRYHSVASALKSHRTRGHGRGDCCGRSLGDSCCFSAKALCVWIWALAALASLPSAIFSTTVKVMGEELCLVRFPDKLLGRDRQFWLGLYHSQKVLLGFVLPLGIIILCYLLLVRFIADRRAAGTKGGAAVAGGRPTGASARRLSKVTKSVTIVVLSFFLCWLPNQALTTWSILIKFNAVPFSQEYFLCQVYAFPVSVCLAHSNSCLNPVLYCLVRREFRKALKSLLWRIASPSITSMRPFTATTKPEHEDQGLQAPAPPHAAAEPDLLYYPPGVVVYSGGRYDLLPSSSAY
Protocol: SE302 cells (3×10^3) constructed in Example 5 above were cultured in a 96-well plate (Asahi Techno Glass) using 100 μl of DMEM (Sigma) supplemented with […] fetal bovine serum (FBS) and PS (hereinafter called “culture medium”). On the following day, the retrovirus vector prepared in Example 4 was appropriately diluted and a 100-μl portion of the dilution and polybrene (also called as hexadimethrine bromide, Sigma) prepared in the culture medium (at a final concentration of 8 μg/ml) were added to the SE302 cells. On the following day, the culture medium was replaced by 200 μl of a culture medium supplemented with 500 μg/ml hygromycin (Invitrogen) and then incubation was continued. The SE302 cells for SALPR gene transfer grown under these conditions (hereinafter called “SALPR-SE302 cells”) were appropriately subcultured for experimental use.
SALPR-SE302 cells constructed in Example 6 above were suspended in a medium for measuring transcription activity (DMEM supplemented with 10% FBS (inactivated at 65° C. for 30 minutes)) and then inoculated in a 96-well plate (Beckton Dickinson) at 1×10^4 cells/well. […]

[5] = tested on: THP-1 cells; conditions: THP-1 cells of the immune system; WO 01/81562, Bathgate et al. 2002; cited from earlier work
[6] = 50 pmol/rat intracerebroventricular

Substance | burying behavior time ([1]; 0.05 nmol/rat intracerebroventricular) | burying behavior time ([1]; 1 nmol/rat intracerebroventricular, Dunnett P<0.05) | total number of entries into open and closed arms [2] | time spent in open arms ([2]; P<0.05) | total number of entries into open and closed arms ([3]; 10 pmol/rat intracerebroventricular) | time spent in open arms ([3]; 10 pmol/rat intracerebroventricular, P<0.05) | time spent in open arms [3, 6] | total number of entries into open and closed arms [3, 6] | transcription activity increased by addition of forskolin (alkaline phosphatase reporter) [4] | intracellular cyclic AMP (cAMP) [5]
human relaxin-3: Synthetic human relaxin-3: B-chain SEQ ID NO: 5 and A-chain SEQ ID NO: 6 bonded through disulfide bonds (beta RAAPYGVRLCGREFIRAVIFTCGGSRW; alpha DVLAGLSSSCCKWGCSKSEISSLC; disulfide I:10-II:11, I:22-II:24, II:10-II:15; not fully specified; ends not checked; listed as Homo sapiens) | decreased | significant decrease | no difference | significant increase | no difference | statistically significantly high | increase | no difference | – | –
insulin [reference compound] | – | – | – | – | – | – | – | – | not affected | –
relaxin-3: Relaxin-3 (Phoenix Pharmaceuticals) used in the SALPR reporter assay; mature two-chain polypeptide also known as INSL7 | – | – | – | – | – | – | – | – | suppresses; also recorded: specific dose-dependent suppression | increase
